This is an account of results in PMC7127794 (Bioorganic & Medicinal Chemistry Letters, 2015).

Data set [1] concerns influenza virus A/H1N1/pdm09. It is filed as cell-based, influenza virus A/California/07/09/H1N1/pdm09.
Data set [2] deals with MDCK cells. The note with it: dog.

Regarding `CC1(C)[C@@H](O[C@H]2O[C@H](C(=O)O)[C@@H](O)[C@H](O)[C@H]2O[C@@H]2O[C@H](C(=O)O)[C@@H](O)[C@H](O)[C@H]2O)CC[C@]2(C)[C@H]3C(=O)C=C4[C@@H]5C[C@@](C)(C(=O)O)CC[C@]5(C)CC[C@@]4(C)[C@]3(C)CC[C@@H]12` [Compound 1, Glycyrrhizic acid], in data set [1], the “anti-viral activity (in words)” value is reported as “did not show anti-viral activity”. The CD50 in data set [2] was 364.6 µM.
In the case of `CC1(C)[C@@H](O[C@@H]2O[C@H](C(=O)N[C@@H](CCCCNC(=O)OCc3ccccc3)C(=O)O)[C@@H](O)[C@H](O)[C@H]2O[C@@H]2O[C@H](C(=O)N[C@@H](CCCCNC(=O)OCc3ccccc3)C(=O)O)[C@@H](O)[C@H](O)[C@H]2O)CC[C@]2(C)[C@H]3C(=O)C=C4[C@@H]5C[C@@](C)(C(=O)O)CC[C@]5(C)CC[C@@]4(C)[C@]3(C)CC[C@@H]12` [Compound 13], the “anti-viral activity (in words)” value in data set [1] was “slightly increased antiviral activity”.
Regarding `COC(=O)[C@H](Cc1ccccc1)NC(=O)[C@H]1O[C@@H](O[C@H]2[C@H](O[C@H]3CC[C@]4(C)[C@H]5C(=O)C=C6[C@@H]7C[C@@](C)(C(=O)O)CC[C@]7(C)CC[C@@]6(C)[C@]5(C)CC[C@H]4C3(C)C)O[C@H](C(=O)N[C@@H](Cc3ccccc3)C(=O)OC)[C@@H](O)[C@@H]2O)[C@H](O)[C@@H](O)[C@@H]1O` [Compound 5], in data set [1], the “more wide SI values than Rimantadine” value came to 12.2 times.
With `CC1(C)[C@@H](O[C@@H]2O[C@H](C(=O)O)[C@@H](O)[C@H](O)[C@H]2O[C@@H]2O[C@H](C(=O)O)[C@@H](O)[C@H](O)[C@H]2O)CC[C@]2(C)C3=CC=C4[C@@H]5C[C@@](C)(C(=O)O)CC[C@]5(C)CC[C@@]4(C)[C@]3(C)CC[C@@H]12` [Compound 19], in data set [1], the “anti-viral activity (in words)” value is given as “moderate”. The “more toxic to cells than natural glycoside 1” value in data set [2] is 17 times.
Turning to `COC(=O)C[C@H](NC(=O)[C@H]1O[C@@H](O[C@H]2[C@H](O[C@H]3CC[C@]4(C)[C@H]5C(=O)C=C6[C@@H]7C[C@@](C)(C(=O)O)CC[C@]7(C)CC[C@@]6(C)[C@]5(C)CC[C@H]4C3(C)C)O[C@H](C(=O)N[C@@H](CC(=O)OC)C(=O)OC)[C@@H](O)[C@@H]2O)[C@H](O)[C@@H](O)[C@@H]1O)C(=O)OC` [Compound 9], the “anti-viral activity (in words)” value in data set [1] is listed as “does not confer virus-inhibiting properties”. In data set [2], this molecule came in with a CD50 of 37.3 µM.
Turning to `CC1(C)[C@@H](O[C@@H]2O[C@H](C(=O)N[C@@H](CSCc3ccccc3)C(=O)O)[C@@H](O)[C@H](O)[C@H]2O[C@@H]2O[C@H](C(=O)N[C@@H](CSCc3ccccc3)C(=O)O)[C@@H](O)[C@H](O)[C@H]2O)CC[C@]2(C)[C@H]3C(=O)C=C4[C@@H]5C[C@@](C)(C(=O)O)CC[C@]5(C)CC[C@@]4(C)[C@]3(C)CC[C@@H]12` [Compound 11], the “more wide SI values than Rimantadine” value in data set [1] was 14.2 times.
As to `COC(=O)C[C@H](NC(=O)[C@H]1O[C@@H](O[C@H]2[C@H](O[C@H]3CC[C@]4(C)[C@H]5C(=O)C=C6[C@H]7C[C@@](C)(C(=O)O)CC[C@]7(C)CC[C@@]6(C)[C@]5(C)CC[C@H]4C3(C)C)O[C@H](C(=O)N[C@@H](CC(=O)OC)C(=O)OC)[C@@H](O)[C@@H]2O)[C@H](O)[C@@H](O)[C@@H]1O)C(=O)OC` [Compound 16], the CD50 in data set [2] is 38.0 µM.
Take 18α-GL [Compound 15]: in data set [1], a half-maximal response (EC50) required 15.2 µM, the SI is 3 and the “anti-viral activity (in words)” value is “week anti-viral activity”. For the same molecule, in data set [2], the “more toxic to cells than natural glycoside 1” value is 7.7 times.

Broadly, the EC50 is the concentration at which the effect is half-maximal.
